Source: PMC5382548 (Scientific Reports, 2015)

What was measured:
KRAS32R G4 = test: FRET melting assay, KRAS32R G4; assay type: binding, human; conditions: G4 0.2 μM, ligand 1 μM
Description: (§1) Two compounds 2d and 3e were selected and evaluated for their ability to stabilize the 32-mer sequence in the NHE of the human KRAS promoter (KRAS32R)[12], two G4 motifs in the 5′UTR of KRAS mRNA (UTR-1 and UTR-2)[24] and a 21-mer DNA G4 from the human telomeric sequence (F21T). The KRAS32R sequence has been described as forming two G4 structures which exist in equilibrium. One sequence folds into a G4 (Q1) with a Tm of ~55°C that is disrupted on increasing the temperature and then, the full-length 32-mer sequence folds into a new G4 (Q2, Tm of ~72°C)[13]. In our assay, the KRAS32R sequence (in the presence or absence of IQcs) folded in a single G4 structure (Tm ≈ 54°C), as shown by the single inflection for the first derivative of the FRET melting data (Sup. Inf.; Figure S4). This monophasic behaviour was also observed in the presence of TMPyP4[13].
(§2) Oligonucleotide sequences were purchased from Eurofins MWG Synthesis GmbH, Germany or STAB VIDA Genomics Lab, Caparica, Lisbon, Portugal. […]
(§3) The ability of indolo[3,2-c]quinolines to stabilize DNA sequences was investigated using a Fluorescence Resonance Energy Transfer (FRET) assay as reported elsewhere.

[1] = system: UTR-2 G4 in the 5′UTR of KRAS mRNA; test: FRET melting assay, UTR-2 RNA G4; assay type: binding; conditions: G4 0.2 μM, ligand 1 μM
Description: as §1, §2, §3

[2] = system: KRAS21R (FRET-labelled) (DNA, G4) AGGGCGGTGTGGGAAGAGGGA; test: FRET melting; conditions: 60 mM K+; K-cacodylate pH 7.4; 0.2 μM DNA, 1 μM compound; SD ≤ 0.2
[3] = system: 26ds (ds26) (DNA, duplex) CAATCGGATCGAATTCGATCCGATTG; test: spectrofluorimetric titration, one-site Hill slope fit; conditions: 60 mM K+, K-cacodylate pH 7.4, 25 °C, 1 μM compound, apparent, SD ≤ 0.2 × 10^6
KRAS mRNA in SW620 cells = test: KRAS mRNA steady-state levels, Taqman real-time RT-PCR, SW620; assay type: cell-based, human; conditions: equitoxic (IC50) concentrations, 72 h
Description: The effects of compounds on KRAS transcription in colon cancer cells (HCT116 and SW620) were evaluated by quantifying KRAS mRNA steady-state levels using Taqman real-time RT-PCR.
(a) KRAS mRNA steady-state expression was evaluated by Taqman Real-time RT-PCR using specific Taqman Assays for KRAS and β-Actin for normalization. KRAS mRNA steady-state expression levels were calculated by the ΔΔCt method, using DMSO (vehicle control) for calibration; and (b) KRAS protein steady-state expression evaluated by immunoblot relative to control (DMSO vehicle) Results are expressed as mean ± SEM of at least three independent experiments; *p < 0.05 and §p < 0.01 from DMSO (vehicle control). […]
Taqman Real-time PCR reactions were performed using 1.5 µg of total RNA, using High Capacity RNA to cDNA kit, according to the manufacturer`s instruction. […] The comparative threshold cycle method was used to calculate the amplification factor, where the threshold cycle (Ct) is defined as the cycle number at which the fluorescence passes the fixed threshold intensity level. KRAS expression levels in different samples were calculated on the basis of ΔΔCt method. […]
Hoechst labeling of cells was used to detect apoptotic nuclei by evaluation of nuclear morphology under fluorescence microscopy. […] Fluorescent nuclei were scored and categorized according to the condensation and staining characteristics of […]

| Compound | ΔTm KRAS32R (KRAS32R G4) | ΔTm UTR-2 [1] | binding [2] | Ka ([3]; Hill 2.5) | Reduction of KRAS mRNA steady-state levels, SW620 (KRAS mRNA in SW620 cells) | Ka ([3]; Hill 1.5) |
| --- | --- | --- | --- | --- | --- | --- |
| CCN(CC)CCCNc1ccc2c(c1)[nH]c1c2c[n+](C)c2ccc(NCCCN(CC)CC)cc12.[Cl-] [3e] | 17.0 °C | 9.9 °C | yes | 3.2e+06 M⁻¹ |  |  |
| CCN(CC)CCCNc1ccc2c(c1)c1[nH]c3ccccc3c1c[n+]2C [2d] | 10.7 °C | 2.0 °C |  |  | 90% | 2.8e+06 M⁻¹ |
| Cn1cc2c3ccccc3nc-2c2cc(Br)ccc21 [2a, 2-bromo-5-methyl-indolo[3,2-c]quinoline] |  |  | weak |  |  |  |
| CCN(CC)CCCNc1ccc2[nH]c3c(c[n+](C)c4ccc(NCCCN(CC)CC)cc34)c2c1.[Cl-] [3d] |  |  |  |  | 25% |  |
